Reference: patent publication US20250214942A1, “INHIBITORS OF RECEPTOR INTERACTING PROTEIN KINASE I FOR THE TREATMENT OF DISEASE” (Board of Regents, The University of Texas System, priority 2019, published 2025)

Tested on: human monocytic cell line U937
Assay: Human U937 cellular necroptosis assay (TNFalpha + z-VAD-FMK, Cell Titer-Glo viability)
Format: cell-based
Settings: Homo sapiens, U-937, 22 h, U937 cells, 25 ng/mL human TNFalpha + 25 μM z-VAD-FMK, read-out: hU937 Avg IC50
Method: The human monocytic cell line U937 (CRL-1593.2) was purchased from ATCC. The cells were routinely maintained in RPMI-1640 Medium (Gibco, Catalog #11875-093) supplemented with 10% heat inactivated fetal bovine serum (Gibco, Catalog #16140-071), 100 units/mL penicillin and 100 μg/mL streptomycin (Gibco, Catalog #15140-122), in a humidified incubator (37° C., 5% CO2). For the assay, cells were resuspended in RPMI-1640 phenol red free Media (Gibco, Catalog #11835-030) supplemented with 10% fetal bovine serum (Sigma, Catalog #F2442), 100 units/mL penicillin and 100 ug/mL streptomycin. Cells were stimulated with 25 ng/mL human TNFalpha (Cell Sciences, Catalog #CSI15659B) and 25 μM z-VAD-FMK (R&D Systems, Catalog #FMK001) followed by seeding 5000 cells per well in a volume of 40 μL to a white, CulturPlate-384 (Perkin Elmer, Catalog #6007680). Stock solutions of the test compounds were prepared in 100% DMSO (Sigma, Catalog #D2650) and serially diluted 1:3 using 100% DMSO. Compounds were additionally diluted 1:40 in assay medium, and 10 μL/well was transferred to the plate. Following the compound addition the plate was incubated at 37° C. and 5% CO2 for 22 h. After 22 h, viability was assessed with the addition of 20 μL of Cell Titer-Glo 2.0 (Promega, Catalog #G9243). The tissue culture plate was shaken on an orbital shaker at 300 RPM for 15 minutes at rt in the dark. Luminescence was measured using a PerkinElmer Envision™ plate reader. IC50 values were calculated using a four-parameter logistic curve fit using Genedata Screener software. Results are shown below in Table 3, where the average value across multiple runs is given.

N#Cc1cnc(OCC23CC(C(=O)N4N=CCC4c4ccc(F)c(CO)c4)(C2)C3)cn1 (stereo not shown) [Example 207, 5-((3-(5-(4-Fluoro-3-(hydroxymethyl)phenyl)-4,5-dihydro-1H-pyrazole-1-carbonyl)bicyclo[1.1.1]pentan-1-yl)methoxy)pyrazine-2-carbonitrile]
IC50: 633 nM

N#Cc1ccc(OCC23CC(C(=O)N4N=CCC4c4cccc(Cl)c4Cl)(C2)C3)nc1 (stereo not shown) [Example 290, 6-((3-(5-(2,3-dichlorophenyl)-4,5-dihydro-1H-pyrazole-1-carbonyl)bicyclo[1.1.1]pentan-1-yl)methoxy)nicotinonitrile]
IC50: 445 nM

Cc1ccc(C2CC=NN2C(=O)C23CC(COc4cnc(C#N)cn4)(C2)C3)cc1F (stereo not shown) [Example 269, 5-((3-(5-(3-fluoro-4-methyl-phenyl)-4,5-dihydro-1H-pyrazole-1-carbonyl)bicyclo-[1.1.1]pentan-1-yl)-methoxy)pyrazine-2-carbonitrile]
IC50: 5.4 nM

Cc1cc(F)c(C2CC=NN2C(=O)C23CC(COc4cnc(C#N)cn4)(C2)C3)cc1F (stereo not shown) [Example 195, 5-((3-(5-(2,5-Difluoro-4-methylphenyl)-4,5-dihydro-1H-pyrazole-1-carbonyl)bicyclo[1.1.1]pentan-1-yl)methoxy) pyrazine-2-carbonitrile]
IC50: 1.5 nM

N#Cc1ccc2c(cnn2CC23CC(C(=O)N4C[C@@H](O)C[C@H]4c4cccc(F)c4)(C2)C3)c1 (single isomer, unassigned) [Example 262]
IC50: 4670 nM

Cc1ccc(C2CC=NN2C(=O)C23CC(COc4cnc(C#N)cn4)(C2)C3)nc1 (stereo not shown) [Example 278, 5-((3-(5-(5-methylpyridin-2-yl)-4,5-dihydro-1H-pyrazole-1-carbonyl)bicyclo[1.1.1]-pentan-1-yl)methoxy)pyrazine-2-carbonitrile]
IC50: 97 nM

Cc1cc(F)c(C2CC=NN2C(=O)C23CC(COc4cnc(C#N)cn4)(C2)C3)c(F)c1 (stereo not shown) [Example 304, 5-((3-(5-(2,6-difluoro-4-methylphenyl)-4,5-dihydro-1H-pyrazole-1-carbonyl)-bicyclo[1.1.1]pentan-1-yl)-methoxy)pyrazine-2-carbonitrile]
IC50: 6 nM

COc1cnnc(OCC23CC(C(=O)N4N=CCC4c4cc(F)cc(F)c4)(C2)C3)c1 (stereo not shown) [Example 329, (5-(3,5-difluorophenyl)-4,5-dihydro-1H-pyrazol-1-yl)(3-(((5-methoxypyridazin-3-yl)-oxy)methyl)bicyclo[1.1.1]-pentan-1-yl)methanone]
IC50: 1290 nM

N#Cc1cnc(OCC23CC(C(=O)N4CC(F)CC4c4cccc(F)c4)(C2)C3)cn1 (stereo not shown) [Example 283]
IC50: 160 nM

N#Cc1ccc(OCC23CC(C(=O)N4N=CCC4c4ncccc4F)(C2)C3)nc1 (stereo not shown) [Example 303, 6-((3-(5-(3-fluoropyridin-2-yl)-4,5-dihydro-1H-pyrazole-1-carbonyl)bicyclo[1.1.1]-pentan-1-yl)methoxy)-nicotinonitrile]
IC50: 500 nM

O=C(N1N=CCC1c1cc(F)cc(F)c1)C12CC(C(F)c3cc(F)cc(Cl)c3)(C1)C2 (stereo not shown) [Example 227, (3-((3-chloro-5-fluorophenyl-)fluoromethyl)bicyclo[1.1.1]-pentan-1-yl)(5-(3,5-difluoro-phenyl)-4,5-dihydro-1H-pyrazol-1-yl)methanone]
IC50: 133 nM

N#Cc1ccc2nn(CC34CC(C(=O)N5N=CCC5c5cncc(F)c5)(C3)C4)cc2c1 (stereo not shown) [Example 127, 2-((3-(5-(5-fluoropyridin-3-yl)-4,5-dihydro-1H-pyrazole-1-carbonyl)bicyclo[1.1.1]-pentan-1-yl)methyl)-2H-indazole-5-carbonitrile]
IC50: 1260 nM

N#Cc1cnc(OCC23CC(C(=O)N4N=CCC4c4cc(F)ccc4F)(C2)C3)cn1 (stereo not shown) [Example 268, 5-((3-(5-(2,5-difluorophenyl)-4,5-dihydro-1H-pyrazole-1-carbonyl)bicyclo[1.1.1]pentan-1-yl)methoxy)pyrazine-2-carbonitrile]
IC50: 3.9 nM
